Like-named read-outs stand apart in the source and are kept apart here.
How the values were obtained:
human corpus cavernosum = assay: Relaxation of noradrenaline-contracted human isolated corpus cavernosum (isometric tension recording); conditions: human corpus cavernosum contracted with noradrenaline, 0.0001-1 μM, n=3
Protocol: (§1) Human corpus cavernosum and urether were obtained from discarded tissues from surgeries, which were placed in ice-cold Krebs solution for rapid transport to the laboratory.
(§2) Cavernosal strips, pulmonary artery, and urether were mounted in 10 ml organ chambers containing Kreb's solution at 37° C., pH 7.4 continuously bubbled with a mixture of 95% O2 and 5% CO2. The tissues were stretched to a resting force of 5 mN and allowed to equilibrate for 60 min. Changes in isometric force were recorded using a PowerLab 4/30 data acquisition system (Chart software, version 7.0; ADInstruments, Colo. Springs, Colo.). Cumulative concentration-response curves to compound 2 (named BL 106 in FIGS. 1, 2 and 3) (0.001-10 μM) were obtained in cavernosal strips, pulmonary artery rings, and urether contracted with noradrenaline (NOR 10 μM) (Sigma, St. Louis, Mo.). Concentration response curves to compound 2 (denoted BL 106 in FIGS. 1, 2 and 3) were constructed for each sample. For pulmonary artery, concentration response curves to compound 2 were also constructed in the presence or absence of the soluble guanylate cyclase inhibitor 1H-[1,2,4]Oxadiazolo[4,3-a]quinoxalin-1-one (ODQ 10 μM) (Sigma, St. Louis, Mo.). Control rings (treated with 40 mM DMSO) were also ran in parallel with experimental strips and rings.
Noradrenaline caused a sustained contraction in the human corpus cavernosum.

human urether tissue = assay: Relaxation of noradrenaline-contracted human isolated urether tissue (isometric tension recording); conditions: human urether contracted with noradrenaline, 0.0001-1 μM, n=3
Protocol: as §1, §2
Noradrenaline caused a sustained contraction in the human urether tissue.

rabbit corpus cavernosum = assay: Relaxation of noradrenaline-contracted rabbit isolated corpus cavernosum (isometric tension recording)
Protocol: as §2, with “Male New Zealand White rabbits (2-2.5 kg) were used for penis and pulmonary artery tissues, which were excised and transferred to ice-cold Kreb's solution. Two strips and four rings were obtained from each corpus cavernosum (CC) and pulmonary artery, respectively. Cavernosal” for “Cavernosal”, “rings. Noradrenaline (3 or 10 μM) caused a sustained contraction in rabbit corpus cavernosum (13.8 mN).” for “rings.”

rabbit pulmonary artery = assay: Relaxation of noradrenaline-contracted rabbit isolated pulmonary artery rings (isometric tension recording)
Protocol: as §2, with “Male New Zealand White rabbits (2-2.5 kg) were used for penis and pulmonary artery tissues, which were excised and transferred to ice-cold Kreb's solution. Two strips and four rings were obtained from each corpus cavernosum (CC) and pulmonary artery, respectively. Cavernosal” for “Cavernosal”, “rings. Noradrenaline (3 or 10 μM) caused a sustained contraction in the rabbit pulmonary artery (17.4 mN).” for “rings.”

[1] = read-out: pEC50 of relaxation (converted)

EC50 (human corpus cavernosum; [1]) | EC50 (human urether tissue; [1]) | EC50 (rabbit corpus cavernosum; Oryctolagus cuniculus, rabbit corpus cavernosum contracted with noradrenaline, n=3, read-out: EC50 of relaxation (bracketed after pEC50) (converted)) | EC50 (rabbit corpus cavernosum; Oryctolagus cuniculus, rabbit corpus cavernosum contracted with noradrenaline, n=3, read-out: pEC50 of relaxation (converted)) | EC50 (rabbit pulmonary artery; Oryctolagus cuniculus, rabbit pulmonary artery rings contracted with noradrenaline, 0.001-10 μM, n=3, read-out: pEC50 of relaxation (converted)) | EC50 (rabbit pulmonary artery; Oryctolagus cuniculus, rabbit pulmonary artery rings contracted with noradrenaline, n=3, read-out: EC50 of relaxation (bracketed after pEC50) (converted)) | SMILES | Emax (human corpus cavernosum) | Emax (human urether tissue) | Emax (rabbit corpus cavernosum; Oryctolagus cuniculus, rabbit corpus cavernosum contracted with noradrenaline, n=3) | Emax (rabbit pulmonary artery; Oryctolagus cuniculus, rabbit pulmonary artery rings contracted with noradrenaline, 0.001-10 μM, n=3) | sustained contraction (rabbit corpus cavernosum; rabbit corpus cavernosum, noradrenaline 3 or 10 μM) | sustained contraction (rabbit pulmonary artery; rabbit pulmonary artery, noradrenaline 3 or 10 μM)
22.4 nM | 513 nM | 1200 nM | 1200 nM | 589 nM | 588 nM | CN1CC(=O)N2C(=C(c3c[nH]c4ccccc34)OC2c2ccc3c(c2)OCO3)C1=O (racemic) [Compound 2, (R,S)-3-(1,3-benzodioxol-5-yl)-1-(1H-indol-3-yl)-7-methyl-6,7-dihydro[1,3]oxazolo[3,4-a]pyrazine-5,8-dione] | 71% | 49% | 91% | 62% |  | 
 |  |  |  |  |  | NC[C@H](O)c1ccc(O)c(O)c1 [Noradrenaline, noradrenaline, reference compound] |  |  |  |  | 13.8 mN | 17.4 mN

Reference: patent US8338432B2, “Derivatives of 6,7-dihydro-3H-oxazolo[3,4-a]pyrazine-5,9-dione as PDE-5 inhibitors” (Biolab Sanus Farmaceutica Ltda., priority 2010, dated 2012)
